According to ChEMBL document CHEMBL1155220, “The medicinal chemistry of dengue fever” (J Med Chem, 2009):
pEC50, pIC50: −log10 of the molar value. Values after ≈ are worked out from the molar mass of the structure shown.

Assays:
[1] = Inhibition of Dengue virus sEnvelope glycoprotein binding to immobilized heparin
Dengue virus [2] = experiment: Antiviral activity against Dengue virus assessed as reduction of virus yield by cell based assay; assay type: functional, organism-based
Dengue virus [3] = experiment: Antiviral activity against Dengue virus assessed as inhibition of virus-induced cytopathic effect by cell based assay; assay type: functional, organism-based
Dengue virus [4] = experiment: Antiviral activity against Dengue virus; assay type: functional, organism-based
[5] = Inhibition of Dengue virus IMPDH
Dengue virus [6] = experiment: Inhibition of Dengue virus NS3 helicase at 100 uM
[7] = Inhibition of Dengue virus NS3 helicase
Dengue virus [8] = experiment: Antiviral activity against Dengue virus by cell based assay; assay type: functional, organism-based
[9] = Inhibition of Dengue virus N7-methyl transferase
[10] = Inhibition of Dengue virus 2'-O-methyl transferase

Cc1ccc(C(=O)Nc2ccc(S(=O)(=O)O)c3cc(S(=O)(=O)O)cc(S(=O)(=O)O)c23)cc1NC(=O)c1cccc(NC(=O)Nc2cccc(C(=O)Nc3cc(C(=O)Nc4ccc(S(=O)(=O)O)c5cc(S(=O)(=O)O)cc(S(=O)(=O)O)c45)ccc3C)c2)c1 [SURAMIN]
pIC50 [1]: 6.15

CN[C@@H]1[C@@H](O)[C@@H](O[C@@H]2[C@@H](O)[C@H](O[C@H]3O[C@H]([C@@H](C)O)[C@@H](O)[C@H](O)[C@H]3N)[C@@H](N)C[C@H]2N)OC[C@]1(C)O [GENETICIN]
pEC50 (Dengue virus [2]): 5.40
pEC50 (Dengue virus [3]): 5.22

NC(=O)c1ncn([C@@H]2O[C@H](CO)[C@@H](O)[C@H]2O)n1 [RIBAVIRIN]
EC50 (Dengue virus [4]): 49 µg/mL (≈ 201 µM)
IC50 [5]: 1.6 µg/mL (≈ 6.55 µM)

C#Cc1c(C(N)=O)ncn1[C@@H]1O[C@H](CO)[C@@H](O)[C@H]1O
IC50 [5]: 38 µg/mL (≈ 142 µM)

CO[C@@H]1[C@H](O)[C@@H](CO)O[C@H]1n1cnc2c(=O)[nH][nH]c(=O)c21
inhibition (Dengue virus [6]): 30%
pIC50 [7]: 4.52

CN(CCCNC(=O)c1ccc(O)cc1)CCCNC(=O)c1ccc2cc(O)ccc2c1
pIC50 (Dengue virus [4]): 3.53

COc1cc(NC(=O)Nc2cccc(CNC(=O)O[C@H]3CCOC3)c2)ccc1-c1cnco1 [MERIMEPODIB]
pIC50 (Dengue virus [4]): 5.10

O=C(O)/C=C/c1ccc(OS(=O)(=O)O)cc1
pIC50 (Dengue virus [4]): 2.70

O=c1cnn([C@@H]2O[C@H](CO)[C@@H](O)[C@H]2O)c(=O)[nH]1 [6-AZAURIDINE]
EC50 (Dengue virus [8]): 0.1 µg/mL

CCN(CCOC(=O)/C=C/c1ccc(O)cc1)Cc1cc(Cl)ccc1O
pIC50 (Dengue virus [4]): 4.34

CN(CCCNC(=O)c1ccc(O)cc1)CCCNC(=O)c1ccc(O)cc1
pIC50 (Dengue virus [4]): 2.70

CCN(CCCN(CC)C(=O)c1ccc(O)cc1)C(=O)c1ccc(O)cc1
pIC50 (Dengue virus [4]): 2.70

O[C@H]1[C@H](O)[C@@H](O)CN2CC[C@H](O)[C@H]12 [CASTANOSPERMINE]
pIC50 (Dengue virus [4]): 6.00

C[C@@]1(O)[C@H](O)[C@@H](CO)O[C@H]1n1ccc2c(N)ncnc21 [BETA-2'-C-METHYL-7-DEAZA-ADENOSINE]
pEC50 (Dengue virus [8]): 4.82

COc1c(C)c2c(c(O)c1C/C=C(\C)CCC(=O)O)C(=O)OC2 [MYCOPHENOLIC ACID]
IC50 [5]: 0.1 µg/mL (≈ 0.312 µM)

O=C(O)C1=CC(=C(c2ccc(O)c(C(=O)O)c2)c2ccc(O)c(C(=O)O)c2)C=CC1=O [AURINTRICARBOXYLIC ACID]
pIC50 [9]: 5.64
pIC50 [10]: 3.90
